Experimental data published in the supplement of paper PMC11451515.

What was measured:
Conditions in all cases: 48 h
P12-Ichikawa [1] = experiment: AUC of viability dose-response curve (% viability x log10 dose units); higher = less sensitive
Summary of the method: (§1)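 Over 48 h at 37°C, leukemia cells in 1536-well plates (500 or 1000 cells/well), adapted to each medium, received library compounds in DMSO at 11 threefold doses from 47 μM to 0.79 nM. CellTiter-Glo One luminescence, normalised per plate to DMSO and cell-free wells, was fitted by a four-parameter log-logistic function of log10 dose. The area under the curve was then integrated by trapezoidal rule, after scaling curves above full viability and removing those that failed quality control.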

NOMO1 [2] = experiment: as above
Summary of the method: as §1

SEM cells [3] = experiment: as above
Summary of the method: as §1

P12-Ichikawa [4] = experiment: cell viability relative to DMSO control; higher = less cytotoxic
Summary of the method: (§2)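 Viability was expressed as a per-plate percentage of DMSO wells, with cell-free wells as background. Leukemia cells (NOMO1 or SEM at 500 cells/well, P12-Ichikawa at 1000 cells/well) were adapted for at least four passages in each medium and seeded in 1536-well plates (5 μl). Library compounds in DMSO were pin-dosed over an 11-point threefold series from 47 μM to 0.79 nM, and CellTiter-Glo One luminescence was read after 48 h at 37°C.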

NOMO1 [5] = experiment: as above
Summary of the method: as §2

SEM cells [6] = experiment: as above
Summary of the method: as §2

CCOC(=O)[C@H](CCc1ccccc1)N[C@@H](C)C(=O)N1CCC[C@H]1C(=O)O
AUC of viability dose-response curve
Conditions	NOMO1 [2]	P12-Ichikawa [1]	SEM cells [3]
HPLM + 10% dialyzed FBS	453	452	462
RPMI 5 mM glucose + 10% FBS	437	447	470
RPMI 5 mM glucose + 10% dialyzed FBS	461	465	434

cell viability [%]
Conditions	NOMO1 [5]	P12-Ichikawa [4]	SEM cells [6]
HPLM + 10% dialyzed FBS, 0.000781 µM	128	120	107
HPLM + 10% dialyzed FBS, 0.00234 µM	105	108	110
HPLM + 10% dialyzed FBS, 0.00702 µM	117	116	102
HPLM + 10% dialyzed FBS, 0.0211 µM	134	111	97.3
HPLM + 10% dialyzed FBS, 0.0632 µM	125	102	119
HPLM + 10% dialyzed FBS, 0.19 µM	119	117	123
HPLM + 10% dialyzed FBS, 0.569 µM	108	112	107
HPLM + 10% dialyzed FBS, 1.71 µM	119	109	115
HPLM + 10% dialyzed FBS, 5.12 µM	110	108	113
HPLM + 10% dialyzed FBS, 15.4 µM	99.8	97.8	112
HPLM + 10% dialyzed FBS, 46.1 µM	102	106	113
RPMI 5 mM glucose + 10% FBS, 0.000781 µM	114	118	106
RPMI 5 mM glucose + 10% FBS, 0.00234 µM	105	117	112
RPMI 5 mM glucose + 10% FBS, 0.00702 µM	111	107	104
RPMI 5 mM glucose + 10% FBS, 0.0211 µM	102	111	109
RPMI 5 mM glucose + 10% FBS, 0.0632 µM	102	113	106
RPMI 5 mM glucose + 10% FBS, 0.19 µM	105	113	112
RPMI 5 mM glucose + 10% FBS, 0.569 µM	97.7	108	96.6
RPMI 5 mM glucose + 10% FBS, 1.71 µM	103	111	94.5
RPMI 5 mM glucose + 10% FBS, 5.12 µM	98.7	108	113
RPMI 5 mM glucose + 10% FBS, 15.4 µM	93.3	98.1	120
RPMI 5 mM glucose + 10% FBS, 46.1 µM	103	101	94.8
RPMI 5 mM glucose + 10% dialyzed FBS, 0.000781 µM	97.9	114	119
RPMI 5 mM glucose + 10% dialyzed FBS, 0.00234 µM	109	111	105
RPMI 5 mM glucose + 10% dialyzed FBS, 0.00702 µM	116	106	108
RPMI 5 mM glucose + 10% dialyzed FBS, 0.0211 µM	122	110	109
RPMI 5 mM glucose + 10% dialyzed FBS, 0.0632 µM	116	113	111
RPMI 5 mM glucose + 10% dialyzed FBS, 0.19 µM	123	116	103
RPMI 5 mM glucose + 10% dialyzed FBS, 0.569 µM	112	105	94.4
RPMI 5 mM glucose + 10% dialyzed FBS, 1.71 µM	110	121	101
RPMI 5 mM glucose + 10% dialyzed FBS, 5.12 µM	103	104	103
RPMI 5 mM glucose + 10% dialyzed FBS, 15.4 µM	96	108	99.2
RPMI 5 mM glucose + 10% dialyzed FBS, 46.1 µM	99.5	102	98.5
